Key:
[1] = tested on: atherosclerotic plaques; test: Analysis of atherosclerotic lesions (aortic root H&E, en face Oil Red O) after a single IV dose; format: in vivo, mice
Method: Male Myh11-CreER^T2 ROSA26 STOP-flox eYFP^+/+ Apoe^−/− mice and female Apoe^−/− mice were used for all studies as the Myh11 transgene is expressed only in male mice. Mice were genotyped by qPCR. Following previously reported methods, mice received ten intraperitoneal injections of 1 mg tamoxifen from 6 weeks of age to 8 weeks for 10 mg total of tamoxifen per 25 g of mouse body weight.
(§1) Subsequently, mice were fed a high fat diet (20-23% milkfat, 34% sucrose, 0.2% cholesterol, Teklad Envigo) for 2 weeks before intravenous tail vein injection of treatment (miR-145 micelles, miR-67 micelles, scrambled MCP-1 (NT) miR-145 micelles, free miR-145 (1 mg/kg miR or 0.7 mM total micelle), or PBS). Mice continued high fat diet for an additional 4 weeks or 8 weeks for short- and longer-term efficacy analyses. Mice were then euthanized via CO2 asphyxiation and perfused with PBS, 4% paraformaldehyde (PFA), and PBS again. Organs and aorta were carefully dissected and saved for additional analyses.
Atherosclerotic plaques were analyzed in two ways: 1) en face analysis of entire aorta with Oil Red O (ORO) lipid stain and 2) hematoxylin and eosin (H&E) stains of cross sections of aortic roots. Briefly, aortas were dissected from the root to the common iliac arteries. Excess adventitial fat was carefully removed and the aorta was fixed in 4% PFA overnight. The tissue was then cleaned in 78% methanol for 5 min before staining for 1 h with 0.2% ORO solution in methanol. The aortas were then washed twice with 78% methanol for 5 min each and cut open longitudinally before imaging with a stereomicroscope (Leica, Wetzlar, Germany). Quantification of positively stained lesions was done using ImageJ software (NIH, Bethesda, MD). Aortic roots were embedded in optimal cutting temperature compound (OCT) and flash frozen in 2-methylbutane and liquid nitrogen. Roots were sectioned at 10 μm thick sections and stained using H&E. Plaque and necrotic core area in three aortic root sections were quantified and averaged for each sample to obtain a mean±S.D. measurement.

[2] = tested on: miR-145; test: In vivo miR-145 expression in liver tissue (RT-qPCR); parameters: species or system mice; conditions: one month post treatment
Method: as §1
Aortic roots and liver tissue were obtained from treated mice. Tissues were weighed and lysed with Trizol (Invitrogen, Carlsbad, CA). miRNeasy Mini Kit (Qiagen, Hilden, Germany) was used to extract microRNA and the miScript II RT Kit (Qiagen, Hilden, Germany) was used to synthesize cDNA according to manufacturer's instructions. Real-time qRT-PCR was performed on the LightCycler 480 Real-Time PCR System ([…]) to evaluate miR-145 levels. RNU-6 was used as an internal control and the 2-AACT method was used to calculate relative expression changes.

[3] = tested on: VSMC phenotype in plaques (α-SMA, CD68, RUNX2, eYFP); test: In vivo immunohistochemistry: cellular composition of aortic root plaques; parameters: species or system mice; conditions: one month after single dose
Method: as §1
Aortic roots were cryosectioned as mentioned above. Tissue sections were blocked in 10% donkey serum with 1% BSA. Sections were subsequently stained with antibodies to GFP (Abcam ab6673), α-SMA (Abcam ab5694), CD68 (Abcam ab125212), and RUNX2 (Abcam ab192256) overnight at 4° C. Donkey anti-rabbit IgG Alexa Fluor 594 (Thermo Fisher, Waltham, MA, USA) and donkey anti-goat IgG Alex Fluor 488 (Thermo Fisher, Waltham, MA, USA) were used as secondary antibodies. Sections were counterstained with DAPI for the nuclei, mounted in ProLong Gold Antifade (Thermo Fisher, Waltham, MA, USA), and imaged using a confocal microscope (Nikon C2 CLSM, Nikon, Tokyo, Japan). Cells were then counted using ImageJ software. […]

[4] = Serum cholesterol quantification (HDL, LDL); format: in vivo, mice; conditions: two months post injection
Method: Serum cholesterol levels were quantified using a high density lipoprotein (HDL) and low density lipoprotein (LDL) quantification kit (Sigma-Aldrich). Following the manufacturer's protocol, HDL and LDL were separated in serum using precipitation buffer. HDL and LDL samples were subsequently incubated with Reaction Mixes and fluorescence (ex: 535 nm/em: 587 nm) was measured using a plate reader (Varioskan LUX, Thermo Fisher, Waltham, MA, USA).

[5] = one month after single dose, 1 mg/kg miR IV

free miR-145: unformulated miR-145, 5′-GUCCAGUUUUCCCAGGAAUCCCU-3′ (SEQ ID NO: 2) (listed as RNA, chemistry not given here; listed as Homo sapiens)
overall lesion area of the aorta (ORO en face) [1, 5]: 7.0±1.3% | plaque area in the aortic root [1, 5]: 2.1±0.9% | lesion area by en face ORO staining ([1]; two months after single dose): 8.0±2.0% | plaque/lesional area in the aortic root ([1]; two months after single dose): 10.8±5.0% | miR-145 expression in the liver, fold increase compared to PBS [2]: 1.5 fold | overlap in eYFP and α-SMA signal (α-SMA+YFP+/YFP+) [3]: 30.0±22.1% | α-SMA expression within plaques (α-SMA+/DAPI) [3]: 40.1±30.7% | serum HDL level [4]: increases

Reference: patent US12508322B2, “MIR-145 micelles for mitigating atherosclerosis” (University of Southern California, priority 2021, dated 2025)
